Assay results taken from patent US12692249B2, “WDR5 inhibitors and modulators” (Vanderbilt University, priority 2019, dated 2026).
Read-outs that look alike come from different tables or passages of the source.

Assays:
WDR5 = WDR5 (Homo sapiens, UniProt P61964); test: TR-FRET competition binding assay, displacement of 10mer-Thr-FAM MLL peptide probe from His-tagged WDR5; conditions: WDR5-His tag (residues 24-334) 2 nM; 10mer-Thr-FAM 150 nM; 60 min, room temperature; read-out: Ki for Inhibition of WDR5 by TR-FRET assay
Protocol: Time Resolved-Fluorescence Energy Transfer Competition Assay […] Excess 10mer-Thr-FAM probe was utilized with His-tagged WDR5 in conjunction with a commercial anti-His antibody containing a Terbium label. The LanthaScreenTM Elite Tb-anti-HIS Antibody from ThermoFisher Scientific was used for this purpose. […] The 10mer-Thr-FAM probe when bound to WDR5 will undergo a FRET interaction with the Tb-anti-HIS and emit at 520 nm. […] WDR[…] 10[…] used at 150 nM. […] A source plate is prepared using an Echo Liquid Handler, which distributes the compounds to the assay plate (white, flat-bottom; OptiPlate) in a 10-point, 5-fold dilution schemes with a top concentration of 5 μM, in a final volume of 20 μL. […] The final DMSO concentration in each well of the assay plate is 1% or lower. The plate is covered, shielded from light, and incubated for 60 minutes at room temperature with rocking. 10mer-Thr-FAM and Anti-His terbium antibody fluorescence is then measured on a Biotek Cytation 3 at excitation wavelength of 340 nm, and emission wavelengths of 495 nm and 520 nm. […] TR-FRET signal is plotted and IC50 and Ki values are calculated according to the formula of Wang Z. FEBS Lett (1996) 3, 245. Ki=[I]50/([L]50/Kd+[P]0/Kd+1) where [I]50 is the concentration of the free inhibitor at 50% inhibition, [L]50 is the concentration of the free labeled ligand at 50% inhibition, [P]0 is the concentration of the free protein at 0% inhibition, Kd represents the dissociation constant of the FITC-MLL or 10mer-Thr-FAM probe for WDR5. Total fluorescence is also measured, to rule out compounds that are inherently fluorescent or able to act as quenchers in the assay. TR-FRET Binding Assay

[1] = test system: MV4:11 human cancer cell lines; test: Cellular viability / anti-proliferative assay, CellTiter-Glo, 5 day protocol; type: cell-based; conditions: MV4:11 cells, 5 day incubation, CellTiter-Glo, mean of at least two replicates, read-out: GI50 on cellular proliferation of MV4:11 human cancer cell lines
Protocol: Cellular Viability of Human Tumor Cell Lines
Anti-proliferative activity using MLL-harboring cell lines. MV-4-11 and K562 cells are grown in IMDM media supplemented with 10% FBS and 1% penicillin/streptomycin, Molm-13 cells are cultured in RPMI-1640 media supplemented with 10% FBS and 1% penicillin/streptomycin. Viability assays are performed by dispensing 200 cells at 7200 cells/mL into each well of an opaque 384-well plate and adding compounds at the indicated concentrations in a final volume, of 32 μL. and a final concentration of DMSO of 0.3% for all samples. A certain range of compound concentrations is made through a series of 2-fold dilutions starting 30 μM at the highest, total 22 dilutions. After a set incubation period, 5 day protocol, the viability of cells in each well is assessed using the CellTiter-Glo assay (Promega), read on a 96 Microplane Luminometer (Cytation 3, BioTek). Serial dilutions of each cell type are performed in all assays to generate standard curves and the final densities of cells are determined within the dynamic range of the instrument. GI50 values are calculated based on XLfit software (IDBS, Guildford, UK) with Sigmoidal Dose-Response Model. Each compound is tested in minimum of two replicates. Data are expressed as mean.

Row | Compound | Ki (WDR5) [nM] | GI50 ([1]; Homo sapiens, MV4-11, 120 h) [nM] | GI50 [1] [nM]
1 | COc1cnc2c(c1)[C@@H](N1CCc3c(cc(Cn4ccnc4)cc3-c3cn(C)nc3C(F)(F)F)C1=O)CCC2 [Example 71, (S)-7-((1H-Imidazol-1-yl)methyl)-2-(3-methoxy-5,6,7,8-tetrahydroquinolin-5-yl)-5-(1-methyl-3-(trifluoromethyl)-1H-pyrazol-4-yl)-3,4-dihydroisoquinolin-1(2H)-one] | < 0.02 | < 20 | 
2 | CCc1cc(C(=O)NCCNC(C)=O)c2nccc(N3CCc4c(cc(Cn5ccnc5)cc4-c4cn(C)nc4C(F)(F)F)C3=O)c2c1 [Example 212, 4-(7-((1H-Imidazol-1-yl)methyl)-5-(1-methyl-3-(trifluoromethyl)-1H-pyrazol-4-yl)-1-oxo-3,4-dihydroisoquinolin-2(1H)-yl)-N-(2-acetamidoethyl)-6-ethylquinoline-8-carboxamide] | < 0.02 | 35 | 
3 | CCc1cc(C(=O)Nc2ncco2)c2nccc(N3CCc4c(cc(Cn5ccnc5)cc4-c4cn(C)nc4C(F)(F)F)C3=O)c2c1 [Example 160, 4-(7-((1H-Imidazol-1-yl)methyl)-5-(1-methyl-3-(trifluoromethyl)-1H-pyrazol-4-yl)-1-oxo-3,4-dihydroisoquinolin-2(1H)-yl)-6-ethyl-N-(oxazol-2-yl)quinoline-8-carboxamide] | < 0.02 | < 20 | 
4 | COc1ccc2c(c1)[C@@H](N1CCc3c(cc(Cn4ccnc4)cc3-c3cn(C)nc3C(F)(F)F)C1=O)CCO2 [Example 70, (S)-7-((1H-Imidazol-1-yl)methyl)-2-(6-methoxychroman-4-yl)-5-(1-methyl-3-(trifluoromethyl)-1H-pyrazol-4-yl)-3,4-dihydroisoquinolin-1(2H)-one] | < 0.02 | < 20 | 
5 | COc1cnc2c(c1)c(N1CCc3c(cc(Cn4ccnc4C)cc3-c3cn(C)nc3C(F)(F)F)C1=O)cn2C [Example 79, 2-(5-Methoxy-1-methyl-1H-pyrrolo[2,3-b]pyridin-3-yl)-7-((2-methyl-1H-imidazol-1-yl)methyl)-5-(1-methyl-3-(trifluoromethyl)-1H-pyrazol-4-yl)-3,4-dihydroisoquinolin-1(2H)-one] | < 0.02 | < 20 | 
6 | COc1cc(Cn2ccnc2)c2nccc(N3CCc4c(cc(Cn5ccnc5)cc4-c4cn(C)nc4C(F)(F)F)C3=O)c2c1 [Example 139, 7-((1H-imidazol-1-yl)methyl)-2-(8-((1H-imidazol-1-yl)methyl)-6-methoxyquinolin-4-yl)-5-(1-methyl-3-(trifluoromethyl)-1H-pyrazol-4-yl)-3,4-dihydroisoquinolin-1(2H)-one] | < 0.02 | < 20 | 
7 | Cc1ccc2cncc(N3CCc4c(cc(Cc5cnc[nH]5)cc4-c4cn(C)nc4C(F)(F)F)C3=O)c2c1 [Example 55, 7-((1H-imidazol-5-yl)methyl)-6′-methyl-5-(1-methyl-3-(trifluoromethyl)-1H-pyrazol-4-yl)-3,4-dihydro-1H-[2,4′-biisoquinolin]-1-one] | < 0.02 | 59 | 
8 | COCc1cc(OC)cc2c(N3CCc4c(cc(Cn5ccnc5)cc4-c4cn(C)nc4C(F)(F)F)C3=O)ccnc12 [Example 150, 7-((1H-Imidazol-1-yl)methyl)-2-(6-methoxy-8-(methoxymethyl)quinolin-4-yl)-5-(1-methyl-3-(trifluoromethyl)-1H-pyrazol-4-yl)-3,4-dihydroisoquinolin-1(2H)-one] | 0.025 |  | 27
9 | CCc1cc(NC(C)=O)c2nccc(N3CCc4c(cc(Cn5ccnc5)cc4-c4cn(C)nc4C(F)(F)F)C3=O)c2c1 [Example 231, N-(4-(7-((1H-Imidazol-1-yl)methyl)-5-(1-methyl-3-(trifluoromethyl)-1H-pyrazol-4-yl)-1-oxo-3,4-dihydroisoquinolin-2(1H)-yl)-6-ethylquinolin-8-yl)acetamide] | < 0.02 |  | 
